How the values were obtained:
Type in all cases: cell-based
[1] = tested on: 17 HPV-negative HNSCC and cervical squamous cancer cell lines; test: High-throughput drug screen (HTDS), cell death by AOC_LD, HPV-negative cell lines; details: for HPV negative Resistant (number of cell lines): resistant = AOC_LD 0; for HPV negative Sensitive (number of cell lines): sensitive = AOC_LD greater than 0
Method: (§1) The concordance correlation coefficient was computed to assess the reproducibility of the normalized growth rates of the 2 replicates. […] A chi-square test was applied to compare drug classification and the cluster membership. The Fisher exact test was applied to compare mutations status (wild-type and mutant) and drugs' response data (sensitive and resistant).
(§2) The effects of 864 unique drugs from 51 classes was tested in 16 HPV-positive and 17 HPV-negative HNSCC and cervical squamous cancer cell lines (Table 2) that were characterized previously (Kaiu, et al., Oncotarget 2017; 8(49):86369-83).

[2] = tested on: 16 HPV-positive HNSCC and cervical squamous cancer cell lines; test: High-throughput drug screen (HTDS), cell death by AOC_LD, HPV-positive cell lines; details: for HPV positive Resistant (number of cell lines): resistant = AOC_LD 0; for HPV positive Sensitive (number of cell lines): sensitive = AOC_LD greater than 0
Method: as §1, §2

[3] = tested on: 16 HPV-positive and 17 HPV-negative HNSCC and cervical squamous cancer cell lines; test: High-throughput drug screen (HTDS), whole panel, comparison by HPV status; details: for odds ratio: sensitivity in HPV-positive vs HPV-negative cell lines; for efficacy in HPV-positive vs HPV-negative cell lines: AOC_LD as a dichotomous variable; for cell death: at concentrations known to inhibit mTOR
Method: as §1, §2

Question: How did the “HPV negative Resistant (number of cell lines)” value (“HPV negative Resistant” below) [1] turn out when `CCCCCCOC(=O)[C@]1(O)C[C@@H]2O[C@@]1(C)n1c3ccccc3c3c4c(c5c6ccccc6n2c5c31)C(=O)NC4` [KT5720] was run?
Answer: 17

Question: And the “HPV negative Sensitive (number of cell lines)” value (“HPV negative Sensitive” below) [1]?
Answer: 0

Question: What about the “HPV positive Resistant (number of cell lines)” value (“HPV positive Resistant” below) [2] of the same molecule?
Answer: 12

Question: What about the “HPV positive Sensitive (number of cell lines)” value (“HPV positive Sensitive” below) [2] of the same molecule?
Answer: 4

Question: And the odds ratio [3]?
Answer: Inf

Question: Which “HPV negative Resistant” value [1] does the source give for `CC(C)C[C@H](NC(=O)[C@H](CCc1ccccc1)NC(=O)CN1CCOCC1)C(=O)N[C@@H](Cc1ccccc1)C(=O)N[C@@H](CC(C)C)C(=O)[C@@]1(C)CO1` [CARFILZOMIB] here?
Answer: 5

Question: And the “HPV negative Sensitive” value [1]?
Answer: 12

Question: And the “HPV positive Resistant” value [2]?
Answer: 0

Question: And the “HPV positive Sensitive” value [2]?
Answer: 16

Question: And the odds ratio [3]?
Answer: Inf

Question: How did the “efficacy in HPV-positive vs HPV-negative cell lines” value [3] turn out when `CCS(=O)(=O)c1cccc(-c2cc(C(=O)NC3CCN(C)CC3)c(C)c3[nH]c4ncc(C)cc4c23)c1` [TAK901] was run?
Answer: tended to be more effective in HPV-positive cell lines

Question: How did the “efficacy in HPV-positive vs HPV-negative cell lines” value [3] turn out when `CO[C@@H](C(=O)N1Cc2n[nH]c(NC(=O)c3ccc(N4CCN(C)CC4)cc3)c2C1)c1ccccc1` [danusertib] was run?
Answer: tended to be more effective in HPV-positive cell lines

Question: For `O=C(O)[C@]1(Cc2cccc(Nc3nccs3)n2)CC[C@@H](Oc2cccc(Cl)c2F)CC1` [MK5108], which “efficacy in HPV-positive vs HPV-negative cell lines” value [3] is on record?
Answer: tended to be more effective in HPV-positive cell lines

Question: Which “efficacy in HPV-positive vs HPV-negative cell lines” value [3] does the source give for `O=C(O)c1ccc(Nc2ncc3c(n2)-c2ccc(Cl)cc2C(c2c(F)cccc2F)=NC3)cc1` [MLN8054] here?
Answer: tended to be more effective in HPV-positive cell lines

Question: Which “HPV negative Resistant” value [1] does the source give for `O=C(Nc1c[nH]nc1-c1nc2ccc(CN3CCOCC3)cc2[nH]1)NC1CC1` [AT9283] here?
Answer: 10

Question: What about the “HPV negative Sensitive” value [1] of the same molecule?
Answer: 7

Question: What about the “HPV positive Resistant” value [2] of the same molecule?
Answer: 3

Question: What about the “HPV positive Sensitive” value [2] of the same molecule?
Answer: 13

Question: What does the source list for `COc1cc([C@@H]2c3cc4c(cc3[C@@H](O[C@@H]3O[C@@H]5CO[C@@H](C)O[C@H]5[C@H](O)[C@H]3O)[C@H]3COC(=O)[C@H]23)OCO4)cc(OC)c1O` [ETOPOSIDE]?
Answer: HPV negative Resistant (number of cell lines) [1]: 15; HPV negative Sensitive (number of cell lines) [1]: 2; HPV positive Resistant (number of cell lines) [2]: 7; HPV positive Sensitive (number of cell lines) [2]: 9

Question: Which “HPV negative Resistant” value [1] does the source give for `O=C(Nc1cccc(Nc2ncc(Br)c(NCCc3cnc[nH]3)n2)c1)N1CCCC1` [BX912] here?
Answer: 16

Question: What about the “HPV negative Sensitive” value [1] of the same molecule?
Answer: 1

Question: And the “HPV positive Resistant” value [2]?
Answer: 8

Question: What about the “HPV positive Sensitive” value [2] of the same molecule?
Answer: 8

Question: And the odds ratio [3]?
Answer: 14.66

Question: For `CO[C@H]1C[C@@H]2CC[C@@H](C)[C@@](O)(O2)C(=O)C(=O)N2CCCC[C@H]2C(=O)O[C@H]([C@H](C)C[C@@H]2CC[C@@H](OCCO)[C@H](OC)C2)CC(=O)[C@H](C)/C=C(\C)[C@@H](O)[C@@H](OC)C(=O)[C@H](C)C[C@H](C)/C=C/C=C/C=C/1C` [everolimus], which cell death [3] is on record?
Answer: caused cell death only in a single cell line

Question: What does the source list for `COc1cc(NS(C)(=O)=O)ccc1Nc1c2ccccc2nc2ccccc12` [AMSACRINE]?
Answer: HPV negative Resistant (number of cell lines) [1]: 15; HPV negative Sensitive (number of cell lines) [1]: 2; HPV positive Resistant (number of cell lines) [2]: 5; HPV positive Sensitive (number of cell lines) [2]: 11

Question: Which “HPV negative Resistant” value [1] does the source give for `CNC(=O)c1ccccc1Sc1ccc2c(/C=C/c3ccccn3)n[nH]c2c1` [AXITINIB] here?
Answer: 16

Question: What about the “HPV negative Sensitive” value [1] of the same molecule?
Answer: 1

Question: What about the “HPV positive Resistant” value [2] of the same molecule?
Answer: 8

Question: And the “HPV positive Sensitive” value [2]?
Answer: 8

Question: Which results are given for `Cc1cc(Nc2cc(N3CCN(C)CC3)nc(Sc3ccc(NC(=O)C4CC4)cc3)n2)[nH]n1` [TOZASERTIB, tozasertib]?
Answer: HPV negative Resistant (number of cell lines) [1]: 15; HPV negative Sensitive (number of cell lines) [1]: 2; HPV positive Resistant (number of cell lines) [2]: 7; HPV positive Sensitive (number of cell lines) [2]: 9; efficacy in HPV-positive vs HPV-negative cell lines [3]: tended to be more effective in HPV-positive cell lines

Question: With `CO[C@H]1C[C@@H]2CC[C@@H](C)[C@@](O)(O2)C(=O)C(=O)N2CCCC[C@H]2C(=O)O[C@H]([C@H](C)C[C@@H]2CC[C@@H](OP(C)(C)=O)[C@H](OC)C2)CC(=O)[C@H](C)/C=C(\C)[C@@H](O)[C@@H](OC)C(=O)[C@H](C)C[C@H](C)/C=C/C=C/C=C/1C` [ridaforolimus] as the molecule, how does the cell death [3] read?
Answer: caused cell death only in a single cell line

Question: Which “HPV negative Resistant” value [1] does the source give for `CN1CCN(c2ccc3nc(-c4c(N)c5c(F)cccc5[nH]c4=O)[nH]c3c2)CC1` [DOVITINIB] here?
Answer: 16

Question: And the “HPV negative Sensitive” value [1]?
Answer: 1

Question: And the “HPV positive Resistant” value [2]?
Answer: 10

Question: And the “HPV positive Sensitive” value [2]?
Answer: 6

Question: Which “HPV negative Resistant” value [1] does the source give for BLEOMYCIN here?
Answer: 13

Question: What about the “HPV negative Sensitive” value [1] of the same molecule?
Answer: 4

Question: What about the “HPV positive Resistant” value [2] of the same molecule?
Answer: 6

Question: And the “HPV positive Sensitive” value [2]?
Answer: 10

Question: And the odds ratio [3]?
Answer: 5.12

Question: What does the source list for `Nc1nc(F)nc2c1ncn2[C@@H]1O[C@H](CO)[C@@H](O)[C@@H]1O` [FLUDARABINE]?
Answer: HPV negative Resistant (number of cell lines) [1]: 6; HPV negative Sensitive (number of cell lines) [1]: 11; HPV positive Resistant (number of cell lines) [2]: 13; HPV positive Sensitive (number of cell lines) [2]: 3

— patent US20260258420A1, “COMPOSITIONS AND METHODS FOR THE TREATMENT OF HUMAN PAPILLOMAVIRUS-DRIVEN CANCERS” (priority 2023, published 2026)
